Read-outs that look alike come from different tables or passages of the source.
Key:
[1] = biological target: EGFP-IKZF (UniProt P42212+Q8C7D2, F64L/H231L/INS1V/S65T); assay type: cell-based, mouse; conditions: stable
[2] = biological target: EGFP-ZFP91 (UniProt P42212+Q8C7D2, F64L/H231L/INS1V/S65T); assay type: cell-based, mouse; conditions: for Bottom, EGFP-ZFP91 / LogDC50, EGFP-ZFP91: stable
[3] = CrbnI391V/I391V mESCs, Figure 5E

| SMILES | Bottom, EGFP-IKZF ([1]; B6J-S1 mESCs, Figure 5B) | LogDC50, EGFP-IKZF ([1]; B6J-S1 mESCs, Figure 5B) | Bottom, EGFP-IKZF [1, 3] | LogDC50, EGFP-IKZF [1, 3] | Bottom, EGFP-ZFP91 ([2]; B6J-S1 mESCs, Figure 5B) | LogDC50, EGFP-ZFP91 ([2]; B6J-S1 mESCs, Figure 5B) | degradation of EGFP-ZFP91 ([2]; CrbnI391V/I391V mESCs) | Bottom, EGFP-ZFP91 [2, 3] | LogDC50, EGFP-ZFP91 [2, 3] |
| --- | --- | --- | --- | --- | --- | --- | --- | --- | --- |
| O=C1CC[C@H](N2Cc3c(OCc4ccc(CN5CCOCC5)cc4)cccc3C2=O)C(=O)N1 [IBR, iberdomide] | 1.103 | -1.536 μM | 0.2424 | -3.194 μM | 1.006 | -1.679 μM | efficiently degraded | 0.1665 | -3.079 μM |
| Nc1cccc2c1C(=O)N(C1CCC(=O)NC1=O)C2=O (stereo not shown) [POM, pomalidomide] |  |  | 0.1316 | -2.292 μM |  |  |  | 0.1492 | -2.052 μM |
